According to patent US10526297B2, “Benzylideneguanidine derivatives and therapeutic use for the treatment of protein misfolding diseases” (United Kingdom Research and Innovation, priority 2013, dated 2020):
Like-named read-outs stand apart in the source and are kept apart here.

Experiments:
HeLa cells [1] = experiment: Assessment of Translation Rates in Stressed Cells (Test 3); settings: tunicamycin 2.5 μg/ml together with compounds 50 μM, 35S-methionine labelling
HeLa cells [2] = experiment: Cytoprotection from ER Stress (Test 1); settings: 2.5 μg/ml tunicamycin 6 h, inhibitors 0.2-5 μM, WST-8 viability 48 h after tunicamycin, relative to control
PPP1R15A or PPP1R15B = experiment: Selectivity assessment inferred from the tests; assay type: cell-based; settings: inferred from translation inhibition in stressed/non-stressed cells
HeLa cells [3] = experiment: Assessment of Translation Rates in Unstressed Cells (Test 2); assay type: cell-based; settings: compounds 50 μM, 0.5-7.5 h, 35S-methionine labelling
Description: Following labelling, cells were washed with ice-cold PBS and lysed in 75 μl Laemmli Buffer. […] Gels were then stained with Coomassie Brilliant Blue R-250 and analyzed by phosphorimaging.

HeLa cells [4] = settings: tunicamycin, cited from earlier work
[5] = test system: choroidal neovascularization (CNV); settings: laser-induced rat AMD model; cited from earlier work
PPP1R15B (CReP) = target: T1, PPP1R15B (CReP) (Homo sapiens, UniProt Q5SWA1); settings: constitutive PPP1R15B (CReP); cited from earlier work
T1 sequence (Q5SWA1 1-713): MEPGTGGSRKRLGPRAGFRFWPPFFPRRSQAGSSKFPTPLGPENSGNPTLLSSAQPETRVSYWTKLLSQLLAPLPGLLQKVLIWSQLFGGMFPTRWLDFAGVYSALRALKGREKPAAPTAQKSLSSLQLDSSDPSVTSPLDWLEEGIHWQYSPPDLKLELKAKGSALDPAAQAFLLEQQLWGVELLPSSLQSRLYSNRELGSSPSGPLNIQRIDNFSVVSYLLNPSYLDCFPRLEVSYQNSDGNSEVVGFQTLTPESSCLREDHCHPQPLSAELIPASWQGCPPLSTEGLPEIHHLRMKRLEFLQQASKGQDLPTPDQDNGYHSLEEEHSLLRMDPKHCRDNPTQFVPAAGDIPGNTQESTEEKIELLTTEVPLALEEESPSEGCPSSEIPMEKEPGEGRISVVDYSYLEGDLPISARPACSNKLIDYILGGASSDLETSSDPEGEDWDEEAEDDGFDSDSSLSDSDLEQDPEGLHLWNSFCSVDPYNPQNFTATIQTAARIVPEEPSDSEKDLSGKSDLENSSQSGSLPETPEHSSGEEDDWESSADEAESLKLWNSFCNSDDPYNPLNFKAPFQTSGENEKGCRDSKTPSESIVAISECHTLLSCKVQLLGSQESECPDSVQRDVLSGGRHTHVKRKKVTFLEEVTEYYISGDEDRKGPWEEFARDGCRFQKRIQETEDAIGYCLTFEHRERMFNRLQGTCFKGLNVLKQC

[6] = test system: retinal pigment epithelium (RPE); settings: rat AMD model; cited from earlier work
mutant Huntingtin = settings: cell-based assays, cited from earlier work
PPP1R15A (GADD34) = PPP1R15A (GADD34) (Homo sapiens, UniProt O75807); settings: cited from earlier work
Sequence of PPP1R15A (GADD34) (O75807 whole entry, species assumed): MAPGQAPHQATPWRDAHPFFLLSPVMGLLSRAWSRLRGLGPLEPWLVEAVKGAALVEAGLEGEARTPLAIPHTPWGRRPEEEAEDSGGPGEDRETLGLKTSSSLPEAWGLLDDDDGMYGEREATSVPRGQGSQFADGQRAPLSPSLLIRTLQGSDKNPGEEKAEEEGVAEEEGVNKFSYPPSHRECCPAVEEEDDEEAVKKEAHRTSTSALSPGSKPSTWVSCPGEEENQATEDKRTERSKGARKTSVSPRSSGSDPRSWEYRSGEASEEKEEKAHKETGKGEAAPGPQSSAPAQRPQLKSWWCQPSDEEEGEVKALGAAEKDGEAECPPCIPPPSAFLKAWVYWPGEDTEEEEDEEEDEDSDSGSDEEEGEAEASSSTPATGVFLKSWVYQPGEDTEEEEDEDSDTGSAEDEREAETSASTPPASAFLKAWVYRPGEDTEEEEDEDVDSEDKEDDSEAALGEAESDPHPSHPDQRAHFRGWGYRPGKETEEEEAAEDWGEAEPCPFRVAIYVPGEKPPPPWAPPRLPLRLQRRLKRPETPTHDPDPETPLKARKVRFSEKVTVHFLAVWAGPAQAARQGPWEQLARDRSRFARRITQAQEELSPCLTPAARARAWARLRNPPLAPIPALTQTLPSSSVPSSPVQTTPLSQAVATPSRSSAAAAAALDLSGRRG

choroidal blood flow = settings: in vivo; cited from earlier work
non-stressed cells = settings: cited from earlier work
[7] = test system: Min6 and INS-1 pancreatic beta-cells; settings: expression in the ER of Min6 and INS-1 cells; cited from earlier work
prion infected mice = settings: mouse, in vivo; cited from earlier work
[8] = test system: animal models of alpha-synucleinopathy; settings: two animal models of alpha-synucleinopathy; cited from earlier work
[9] = test system: G93A-SOD1 transgenic mouse; settings: cited from earlier work
P0S63del mice = settings: cited from earlier work

Row | SMILES | Test 3 Translation attenuation after Tm (HeLa cells [1]) | Test 1 Survival following ER stress (increase %) (HeLa cells [2]) | Selectivity assessment Selectivity towards PPP1R15A or PPP1R15B (PPP1R15A or PPP1R15B) | Test 2 Translation inhibition in non-stressed cells (HeLa cells [3]) | also measured
1 | Cc1ccccc1/C=N/NC(=N)N [Example 4, 1-[(E)-[(2-methylphenyl)methylidene]amino]guanidine] | prolonged | 100% | inhibit both PPP1R15A and B | YES | –
2 | CCC1(C2=NCCN2)Cc2ccccc2O1 (stereo not shown) [efaroxan] | – | – | – | – | protection of cells from cytotoxic ER stress (in words) (HeLa cells [4]): Neither the α2-adrenergic receptor agonist clonidine, nor the α2-adrenergic receptor antagonist efaroxan protected cells
3 | NC(N)=N/N=C/c1c(Cl)cccc1Cl [Guanabenz, 2-(2,6-dichlorobenzylidene)hydrazinecarboximidamide] | – | – | – | – | EC50 (HeLa cells [4]; read-out: median effective concentration (cells surviving ER stress)): ~400 nM; protection of cells from cytotoxic ER stress (in words) (HeLa cells [4]): doubled the number of cells surviving ER stress; development of choroidal neovascularization (CNV) [5]: inhibited the development of choroidal neovascularization (CNV); binding to PPP1R15B (PPP1R15B (CReP)): does not bind; protection of RPE from NalO3-induced degeneration [6]: significantly protected; mutant huntingtin accumulation (mutant Huntingtin): attenuating accumulation of mutant Huntingtin; mutant huntingtin accumulation (mutant Huntingtin; listed as guanabenz): reduces mutant huntingtin accumulation in cells; binding to PPP1R15A (PPP1R15A (GADD34)): binding to a regulatory subunit of protein phosphatase 1, PPP1R15A (GADD34); choroidal blood flow (choroidal blood flow): increased choroidal blood flow markedly; translation inhibition in non-stressed cells (non-stressed cells): does not inhibit translation in non-stressed cells; protection against lethal effects of Insulin Akita mutant expression [7]: protection against the lethal effects; symptoms of prion infected mice (prion infected mice): reduces the symptoms
4 | O=C(/C=C/c1ccccc1)NC(NC(=S)Nc1cccc2cccnc12)C(Cl)(Cl)Cl (stereo not shown) [Salubrinal] | – | – | – | – | disease manifestations [8]: significantly attenuates disease manifestations; life span [9]: extends the life span; motor capacity in rotarod analysis (P0S63del mice; P0S63del mice): regained almost normal motor capacity; toxicity (P0S63del mice; mouse, in vivo): toxic
5 | N=C(N)N/N=C/c1c(F)cncc1Cl [Example 16, 1-[(E)-[(3-chloro-5-fluoropyridin-4-yl)methylidene]amino]guanidine] | – | 140% | – | YES | –
6 | Cc1nnc(N/N=C/c2ccccc2Cl)[nH]c1=O [Example 6, 2-chlorobenzaldehyde (6-methyl-5-oxo-4,5-dihydro-1,2,4-triazin-3-yl)hydrazone] | prolonged | 120% | confirmed selective inhibitors of PPP1R15A | – | –
7 | N=C(N)N/N=C/c1ccncc1Cl [Example 13, 1-[(E)-[(3-chloropyridin-4-yl)methylidene]amino]guanidine] | – | 60-80% | – | – | –
8 | N=C(N)N/N=C/c1ccc(F)cc1Cl [Example 7, 1-[(E)-[(2-chloro-4-fluorophenyl)methylidene]amino]guanidine] | prolonged | 160% | inhibit both PPP1R15A and B | YES | –
9 | Clc1cccc(Cl)c1N=C1NCCN1 [clonidine] | – | – | – | – | protection of cells from cytotoxic ER stress (in words) (HeLa cells [4]): Neither the α2-adrenergic receptor agonist clonidine, nor the α2-adrenergic receptor antagonist efaroxan protected cells
10 | N=C(N)N/N=C/c1ccccc1F [Example 3, 1-[(E)-[(2-fluorophenyl)methylidene]amino]-guanidine] | prolonded | 80% | – | YES | –
11 | COC(=O)NC(=N)N/N=C/c1ccccc1Cl [Example 9, methyl N-{N-[(E)-[(2-chlorophenyl)methylidene]amino]carbamimidoyl}carbamate] | – | 20% | – | – | –
12 | N=C(N)N/N=C/c1c(F)cccc1Cl [Example 15, 1-[(E)-[(2-chloro-6-fluorophenyl)methylidene]amino]guanidine] | prolonged | 160% | – | – | –
13 | CC(=O)NC(=N)N/N=C/c1ccccc1Cl [Example 8, N-{N-[(E)-[(2-chlorophenyl)methylidene]amino]carbamimidoyl}acetamide] | prolonged | 100% | inhibit both PPP1R15A and B | YES | –
14 | N=C(N)N/N=C/c1ccccc1Br [Example 2, 1-[(E)-[(2-bromophenyl)methylidene]amino]-guanidine] | prolonged | 40% | inhibit both PPP1R15A and B | YES | –
